# From PMC8338929, “Acetylation turns leucine into a drug by membrane transporter switching” (Scientific Reports, 2021)
# T1: human MCT1 (SLC16A1) (Homo sapiens, UniProt P53985)
# T1 construct: host or cells: MDCK-II
# T1 sequence (P53985 1-500): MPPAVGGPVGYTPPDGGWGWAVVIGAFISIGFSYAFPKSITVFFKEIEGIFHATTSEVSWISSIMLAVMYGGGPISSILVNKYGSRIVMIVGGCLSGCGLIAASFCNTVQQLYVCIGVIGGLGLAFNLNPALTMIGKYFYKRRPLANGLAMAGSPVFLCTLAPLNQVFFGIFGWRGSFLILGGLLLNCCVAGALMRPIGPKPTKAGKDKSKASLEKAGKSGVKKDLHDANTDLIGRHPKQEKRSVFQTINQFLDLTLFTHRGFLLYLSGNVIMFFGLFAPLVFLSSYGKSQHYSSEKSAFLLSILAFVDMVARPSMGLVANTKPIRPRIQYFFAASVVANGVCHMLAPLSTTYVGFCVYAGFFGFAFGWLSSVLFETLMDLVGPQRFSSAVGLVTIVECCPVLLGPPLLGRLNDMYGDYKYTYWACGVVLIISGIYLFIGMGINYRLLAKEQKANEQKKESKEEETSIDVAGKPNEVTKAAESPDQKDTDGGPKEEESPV
# B1: Human OAT3 (SLC22A8) (Homo sapiens) (protein)
# chain: MTFSEILDRVGSMGHFQFLHVAILGLPILNMANHNLLQIFTAATPVHHCRPPHNASTGPWVLPMGPNGKPERCLRFVHPPNASLPNDTQRAMEPCLDGWVYNSTKDSIVTEWDLVCNSNKLKEMAQSIFMAGILIGGLVLGDLSDRFGRRPILTCSYLLLAASGSGAAFSPTFPIYMVFRFLCGFGISGITLSTVILNVEWVPTRMRAIMSTALGYCYTFGQFILPGLAYAIPQWRWLQLTVSIPFFVFFLSSWWTPESIRWLVLSGKSSKALKILRRVAVFNGKKEEGERLSLEELKLNLQKEISLAKAKYTASDLFRIPMLRRMTFCLSLAWFATGFAYYSLAMGVEEFGVNLYILQIIFGGVDVPAKFITILSLSYLGRHTTQAAALLLAGGAILALTFVPLDLQTVRTVLAVFGKGCLSSSFSCLFLYTSELYPTVIRQTGMGVSNLWTRVGSMVSPLVKITGEVQPFIPNIIYGITALLGGSAALFLPETLNQPLPETIEDLENWSLRAKKPKQEPEVEKASQRIPLQPHGPGLGSS
# B2: Human OAT1 (SLC22A6) (Homo sapiens) (protein)
# chain: MAFNDLLQQVGGVGRFQQIQVTLVVLPLLLMASHNTLQNFTAAIPTHHCRPPADANLSKNGGLEVWLPRDRQGQPESCLRFTSPQWGLPFLNGTEANGTGATEPCTDGWIYDNSTFPSTIVTEWDLVCSHRALRQLAQSLYMVGVLLGAMVFGYLADRLGRRKVLILNYLQTAVSGTCAAFAPNFPIYCAFRLLSGMALAGISLNCMTLNVEWMPIHTRACVGTLIGYVYSLGQFLLAGVAYAVPHWRHLQLLVSAPFFAFFIYSWFFIESARWHSSSGRLDLTLRALQRVARINGKREEGAKLSMEVLRASLQKELTMGKGQASAMELLRCPTLRHLFLCLSMLWFATSFAYYGLVMDLQGFGVSIYLIQVIFGAVDLPAKLVGFLVINSLGRRPAQMAALLLAGICILLNGVIPQDQSIVRTSLAVLGKGCLAASFNCIFLYTGELYPTMIRQTGMGMGSTMARVGSIVSPLVSMTAELYPSMPLFIYGAVPVAASAVTVLLPETLGQPLPDTVQDLESRWAPTQKEAGIYPRKGKQTRQQQEHQKYMVPLQASAQEKNGL
# B3: human MCT1 (SLC16A1) (Homo sapiens) (protein)
# chain: T1 sequence (P53985 1-500)
# How the values were obtained:
# [1] = N-acetyl-leucine metabolism in pooled mouse liver S9 fraction (LC-MS); format: in vitro ADME; settings: 1 µM initial concentration, 0-60 min
# Method: (§2) V0 = Vmax. [S]/Km + [S], where V0 is initial velocity, [S] is substrate concentration, Vmax is maximum velocity and Km is substrate concentration at half Vmax. All fitting was performed using GraphPad Prism 8.4 software (GraphPad Software Inc). No weighting scheme was applied.
# [2] = N-acetyl-leucine metabolism in pooled human liver S9 fraction (LC-MS); format: in vitro ADME; settings: 1 µM initial concentration, 0-60 min
# Method: as §2
# LAT1 = settings: read-out: Km LAT1; quoted in discussion, no reference given; cited from earlier work
# human MCT1 (SLC16A1) [3] = biological target: T1, human MCT1 (SLC16A1); assay: Inhibition of MCT1 uptake of probe substrate 2-thiophene glyoxylate in MDCK-II cells; format: cell-based
# Method: (§1) Transport studies with human PepT1 (SLC15A1), LAT1 (SLC7A5) and MCT1 (SLC16A1) were conducted in MDCK-II cells expressing the human transporter or control cells expressing a vector with Green Fluorescence Protein. Cells were transfected using a proprietary, transient transfection system (OPTI-EXPRESSION Technology, BioIVT). The results from the control cells were used to correct for substrate permeation by routes other than the transporter being investigated in the study. […] Specifically, Net Transporter Mediated Substrate Uptake (pmol/min/cm^2) = (Cellular accumulation in the presence of the transporter) − (Mean cellular accumulation in the absence of the transporter). MDCK-II cells were maintained in DMEM with low glucose and 10% FBS. Cells were used at passages up to 40 were seeded at 60,000 ± 10,000 cells/well on 96-well plates approximately 24 h before transfection, and transport assays were performed approximately 48 h after transfection. Transport studies in MDCK-II cells were conducted in 96-well insert plates with permeable membrane (0.4 µm) and receiver tray (Millipore MultiScreen Filter 96-well).
# Transport studies with PepT1 were conducted in 96-well cell culture plate with wells containing a monolayer of MDCK-II cells grown on a permeable support and a corresponding 96-well receiver tray. Cell plates are maintained at 37 °C in 5% CO2 atmosphere prior to initiation of the transport experiment. Pre-incubation was conducted in HBSS, pH 7.4. The transport experiments were conducted in HBSS with Bis–Tris, pH 5.5, without phenol red. Both pre-incubation and incubation were conducted at 37 °C. All final assay solutions of probe substrate, reference inhibitor or test article contain 0.5% (v/v) DMSO (vehicle control). The culture plate insert […] was washed with warm HBSS three times and then blotted dry. The culture plate wells […] were washed with warm HBSS three times. 100 µL of 37 °C HBSS pH 7.4 pre-incubation buffer to the apical compartment as follows: for the probe substrate transport assay, the HBSS contains vehicle; for the reference inhibition assay, the HBSS contains the reference inhibitor at the required concentration; for the test article assays, the HBSS in each well contains test compound at the specified concentration. The plates were incubated at 37 °C with orbital shaking at approximately 60 rpm for the pre-incubation (30 min), aspirated and then 100 µL of the experimental buffer was added. […] Then a 30-µL sample was taken and mixed with 200 µL of scintillation fluid and scintillation counted (1450 Microbeta, Perkin-Elmer). […]
# human MCT1 (SLC16A1) [4] = biological target: T1, human MCT1 (SLC16A1); assay: MCT1-mediated cellular uptake in transfected MDCK-II cells; format: cell-based; settings: 1 min, room temperature, Michaelis-Menten fit
# Method: as §1
# Transport studies with PepT1 were conducted in 96-well cell culture plate with wells containing a monolayer of MDCK-II cells grown on a permeable support and a corresponding 96-well receiver tray. Cell plates are maintained at 37 °C in 5% CO2 atmosphere prior to initiation of the transport experiment. Pre-incubation was conducted in HBSS, pH 7.4. The transport experiments were conducted in HBSS with Bis–Tris, pH 5.5, without phenol red. Both pre-incubation and incubation were conducted at 37 °C. All final assay solutions of probe substrate, reference inhibitor or test article contain 0.5% (v/v) DMSO (vehicle control). The culture plate insert […] was washed with warm HBSS three times and then blotted dry. The culture plate wells […] were washed with warm HBSS three times. […] Then a 30-µL sample was taken and mixed with 200 µL of scintillation fluid and scintillation counted (1450 Microbeta, Perkin-Elmer). […]
# [5] = substrate: CC(=O)N[C@@H](CC(C)C)C(=O)O; assay: cells, lysate or membranes; settings: Michaelis-Menten fit
molecule,measurement,setting,value
[2H]C([2H])([2H])C([2H])(C([2H])([2H])[2H])C([2H])([2H])C([2H])(NC(C)=O)C(=O)O (racemic) [N-acetyl-DL-[^2H10]leucine],"disappearance: asymptote as % of the initial concentration, mouse liver S9",[1],~50%
same,"disappearance: asymptote as % of the initial concentration, human liver S9",[2],~50%
CC(C)C[C@H](N)C(=O)O [L-leucine],Km,LAT1,200 µM
CC(=O)N[C@H](CC(C)C)C(=O)O [N-acetyl-D-leucine],Ki,"human MCT1 (SLC16A1) [3]; Cheng-Prusoff equation from IC50, competitive inhibition assumed, read-out: affinity (Ki) MCT1",1.6 mM
same,IC50,"human MCT1 (SLC16A1) [3]; probe 2-thiophene glyoxylate 500 µM, positive control phloretin 500 µM",11 mM
same,Km,human MCT1 (SLC16A1) [4],1000 µM
same,Vmax MCT1 uptake,human MCT1 (SLC16A1) [4],80
B1,Km,"[5]; other: HEK-293 cells, pH 7.4",7800 µM
B2,Km,"[5]; other: HEK-293 cells, pH 7.4",11000 µM
B3,Km,"[5]; other: MDCK-II cells, 1 min, room temperature",3000 µM
